The target of one series is hGPR88 receptor (Homo sapiens, UniProt Q9GZN0). The series can be described thus: hGPR88-HEK cAMP accumulation assay. The settings on record: HEK-293 cells expressing human recombinant GPR88, forskolin 200 nM, High/Medium/Low bands.
A short description of series [1]: Hepatocyte stability (mouse). The conditions noted are these: test compound 3 μM, 60 min; for hepatocyte CLint at 3 μM: mouse, cryopreserved pooled hepatocytes in suspension, read-out: Mouse heps Clint. It is filed as in vitro ADME. The method, then:
(iii) Hepatocyte Stability (Human, Mouse, Rat or Dog)
Test compound (3 μM) is incubated with cryopreserved hepatocytes in suspension. Samples are removed at 6 time points over the course of a 60 min experiment and test compound is analysed by LC-MS/MS. An intrinsic clearance value (CLint) with standard error and half-life (t %) are calculated. Cryopreserved pooled hepatocytes are stored in liquid nitrogen prior to use. […] The final incubation volume is 500 μL. A control incubation is included for each compound tested where lysed cells are added instead of viable cells. Two control compounds are included with each species.
The reactions are stopped by transferring 50 μL of incubate to 100 μL methanol containing internal standard at the appropriate time points. The control (lysed cells) is incubated for 60 min only. The termination plates are centrifuged at 2500 rpm at 4° C. for 30 min to precipitate the protein. Following protein precipitation, the sample supernatants are combined in cassettes of up to 4 compounds and analysed using generic LC-MS/MS conditions. From a plot of In peak area ratio (compound peak area/internal standard peak area) against time, the gradient of the line is determined. Subsequently, half-life (t %) and intrinsic clearance (CLint) are calculated using the equations below: […]

Series [2] concerns the target T1, dopamine uptake transporter (rat DAT) (Rattus norvegicus, UniProt P23977).
T1 construct: is determined in rat striatum synaptosomes following [^3H]dopamine scintillation counting; from tissue; host or cells: rat striatum synaptosomes
In words: Dopamine transporter uptake assay. The settings on record: rat striatum synaptosomes, [3H]dopamine. It is filed as biochemical.

Each structure is given as a SMILES string. Like-named read-outs stand apart in the source and are kept apart here. Where only a bound is given, the exact number is not on record here.

T1 sequence (P23977 whole entry): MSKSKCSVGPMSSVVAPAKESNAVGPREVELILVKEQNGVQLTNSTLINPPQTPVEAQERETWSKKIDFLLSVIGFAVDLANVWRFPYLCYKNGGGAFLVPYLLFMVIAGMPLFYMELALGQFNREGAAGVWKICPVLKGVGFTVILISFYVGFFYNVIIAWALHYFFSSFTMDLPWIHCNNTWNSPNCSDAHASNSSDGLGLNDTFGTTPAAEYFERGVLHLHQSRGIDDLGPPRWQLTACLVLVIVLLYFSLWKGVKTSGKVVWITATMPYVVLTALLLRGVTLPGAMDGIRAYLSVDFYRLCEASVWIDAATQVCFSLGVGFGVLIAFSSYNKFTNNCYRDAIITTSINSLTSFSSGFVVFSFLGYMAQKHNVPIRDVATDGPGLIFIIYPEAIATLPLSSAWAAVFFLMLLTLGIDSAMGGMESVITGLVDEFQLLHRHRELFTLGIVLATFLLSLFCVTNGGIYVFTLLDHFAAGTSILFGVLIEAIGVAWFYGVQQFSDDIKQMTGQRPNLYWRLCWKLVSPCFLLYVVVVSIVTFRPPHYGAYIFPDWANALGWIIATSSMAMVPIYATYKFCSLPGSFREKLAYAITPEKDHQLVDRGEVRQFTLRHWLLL
hGPR88 receptor, sequence (Q9GZN0 whole entry): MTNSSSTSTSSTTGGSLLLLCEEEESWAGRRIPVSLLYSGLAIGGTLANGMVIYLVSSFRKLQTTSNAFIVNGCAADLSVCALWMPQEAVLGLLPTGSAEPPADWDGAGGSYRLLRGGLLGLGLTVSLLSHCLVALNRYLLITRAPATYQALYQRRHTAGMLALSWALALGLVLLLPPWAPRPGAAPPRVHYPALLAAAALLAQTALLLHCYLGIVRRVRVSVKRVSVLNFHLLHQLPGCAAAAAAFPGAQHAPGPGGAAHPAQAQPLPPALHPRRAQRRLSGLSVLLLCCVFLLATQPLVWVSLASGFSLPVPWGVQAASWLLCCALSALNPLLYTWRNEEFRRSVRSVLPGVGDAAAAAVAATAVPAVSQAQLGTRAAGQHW

For orientation: EC50 means the concentration needed to bring the measured effect to its halfway point. `COCc1ccc(-c2ccc(NC(=O)C3CC3c3ccccn3)cc2)cc1` (racemic) [Example 1, (rac-trans)-N-(4′-(methoxymethyl)-[1,1′-biphenyl]-4-yl)-2-(pyridin-2-yl)cyclo propane-1-carboxamide]: the EC50 at hGPR88 receptor (GRP88 agonist activity (EC50)) is less than 1000 nM. The hepatocyte CLint at 3 μM in series [1] was found to be 65 µL/min/1e6 cells. In addition, in series [2] (10 µM), the “Inhibition of dopamine uptake transporter (% inhibition at 10 μM compound)” value (“Inhibition … (% inhibition at 10 μM compound)” for short) turned out to be 11 % inhibition.
With `CCOc1ccc(-c2ccc(NC(=O)C3CC3c3ccccn3)cc2)cn1` (racemic) [Example 76, (rac-trans)-N-(4-(6-ethoxypyridin-3-yl)phenyl)-2-(pyridin-2-yl)cyclopropane-1-carboxamide], the EC50 on hGPR88 receptor (read-out: GRP88 agonist activity (EC50)) lay in the range of 1000 to 5000 nM. Also, the “Mouse heps Clint” value in series [1] (mouse cryopreserved hepatocytes) stood at 30 μL/min/10^6 cells. Further, in series [2] (10 µM), the “Inhibition … (% inhibition at 10 μM compound)” value came to 7 % inhibition.
On to `CS(=O)(=O)c1ccc(-c2ccc(NC(=O)C3CC3c3ccccn3)cc2)cc1` (racemic) [Example 85, (rac-trans)-N-(4′-(methylsulfonyl)-[1,1′-biphenyl]-4-yl)-2-(pyridin-2-yl)cyclopropane-1-carboxamide], for which the EC50 at hGPR88 receptor (GRP88 agonist activity (EC50)) is less than 1000 nM. The hepatocyte CLint at 3 μM in series [1] was 14 µL/min/1e6 cells. In addition, the “Inhibition … (% inhibition at 10 μM compound)” value in series [2] is recorded as 12 % inhibition.
The corresponding values for `O=C(Nc1ccc(-c2ccc(OC3CC3)cc2)cc1)C1CC1c1ccccn1` (racemic) [Example 87, (rac-trans)-N-(4′-cyclopropoxy-[1,1′-biphenyl]-4-yl)-2-(pyridin-2-yl)cyclopropane-1-carboxamide] are less than 1000 nM, 31 µL/min/1e6 cells and 1 % inhibition.
The corresponding values for `COCc1ccc(C23CC(NC(=O)C4CC4c4ccccn4)(C2)C3)cc1` (racemic) [Example 111, (rac-trans)-N-(3-(4-(methoxymethyl)phenyl)bicyclo[1.1.1]pentan-1-yl)-2-(pyridin-2-yl)cyclopropane-1-carboxamide] are 1000 to 5000 nM, 22 µL/min/1e6 cells and 14 % inhibition.
For `COCc1ccc([C@]23C[C@](NC(=O)C4CC4c4ccccn4)(C2)C3)nc1` (mixture of isomers) [Example 136, N-(3-(5-(methoxymethyl)pyridin-2-yl)bicyclo[1.1.1]pentan-1-yl)-2-(pyridin-2-yl)cyclopropane-1-carboxamide], the 50% effective concentration (EC50) at hGPR88 receptor (GRP88 agonist activity (EC50)) was greater than 5000 nM. The “Inhibition … (% inhibition at 10 μM compound)” value in series [2] worked out at 2 % inhibition.
As for `CCCc1ccc([C@]23C[C@](NC(=O)C4CC4c4ccccn4)(C2)C3)nc1` (mixture of isomers) [Example 137, N-(3-(5-propylpyridin-2-yl)bicyclo[1.1.1]pentan-1-yl)-2-(pyridin-2-yl)cyclopropane-1-carboxamide], the concentration for a half-maximal effect (EC50) at hGPR88 receptor (GRP88 agonist activity (EC50)) was 1000 to 5000 nM. For the same compound, the “Inhibition … (% inhibition at 10 μM compound)” value in series [2] was found to be 10 % inhibition.
As to `COCc1ccc(-c2ccc(NC(=O)C(C)(C)Oc3ccc(F)cc3)cc2)cc1` [Example 2, 2-(4-fluorophenoxy)-N-(4′-(methoxymethyl)-[1,1′-biphenyl]-4-yl)-2-methylpropanamide], at hGPR88 receptor (GRP88 agonist activity (EC50)), the EC50 is less than 1000 nM. Besides, the hepatocyte CLint at 3 μM in series [1] was 54 µL/min/1e6 cells. Further, in series [2], the “Inhibition … (% inhibition at 10 μM compound)” value worked out at 3 % inhibition.
Consider `CCOc1ccc(-c2ccc(NC(=O)C(C)(C)Oc3ccc(F)cc3)cc2)cn1` [Example 26, N-(4-(6-ethoxypyridin-3-yl)phenyl)-2-(4-fluorophenoxy)-2-methylpropanamide], for which the EC50 on hGPR88 receptor (GRP88 agonist activity (EC50)) was less than 1000 nM. The hepatocyte CLint at 3 μM in series [1] worked out at 70 µL/min/1e6 cells. In series [2], the “Inhibition … (% inhibition at 10 μM compound)” value stood at 7 % inhibition.
In the case of `COCc1ccc(-c2ccc3c(c2)CCCN3C(=O)C(C)(C)Oc2ccc(F)cc2)cc1` [Example 31, 2-(4-fluorophenoxy)-1-(6-(4-(methoxymethyl)phenyl)-3,4-dihydroquinolin-1(2H)-yl)-2-methylpropan-1-one], the EC50 on hGPR88 receptor (GRP88 agonist activity (EC50)) was less than 1000 nM. Moreover, in series [1], the hepatocyte CLint at 3 μM amounted to 76 µL/min/1e6 cells. In series [2], the “Inhibition … (% inhibition at 10 μM compound)” value is given as 52 % inhibition.
Regarding `CN(C)c1ncc(-c2ccc(NC(=O)C(C)(C)Oc3ccc(F)cc3)cc2)cn1` [Example 49, N-(4-(2-(dimethylamino)pyrimidin-5-yl)phenyl)-2-(4-fluorophenoxy)-2-methylpropanamide], the EC50 on hGPR88 receptor (GRP88 agonist activity (EC50)) is less than 1000 nM. Further, the “Inhibition … (% inhibition at 10 μM compound)” value in series [2] is listed as 0 % inhibition.
The corresponding values for `CN(C)c1ccc(-c2ccc(NC(=O)C(C)(C)Oc3ccc(F)cc3)cc2)cn1` [Example 79, N-(4-(6-(dimethylamino)pyridin-3-yl)phenyl)-2-(4-fluorophenoxy)-2-methylpropanamide] are less than 1000 nM and 21 % inhibition.
With `COCc1ccc([C@]23C[C@](NC(=O)C(C)(C)Oc4ccc(F)cc4)(C2)C3)cc1` [Example 135, 2-(4-fluorophenoxy)-N-(3-(4-(methoxymethyl)phenyl)bicyclo[1.1.1]pentan-1-yl)-2-methylpropanamide], the EC50 on hGPR88 receptor (GRP88 agonist activity (EC50)) was in the range of 1000 to 5000 nM. The “Inhibition … (% inhibition at 10 μM compound)” value in series [2] is 8 % inhibition.

For the origin of these results see patent US20240132450A1, “MODULATORS OF G PROTEIN-COUPLED RECEPTOR 88” (ACADIA Pharmaceuticals Inc., priority 2020, published 2024).
